Here are results for 1 compound from patent publication US9309236B2, “PI-kinase inhibitors with broad spectrum anti-infective activity” (The Board of Trustees of the Leland Stanford Junior …, priority 2011, dated 2016).

Read-outs that look alike come from different tables or passages of the source.

One data set deals with Plasmodium falciparum. Description: Plasmodium falciparum assay, erythrocyte-fed culture of ring forms. It counts as cell-based. Conditions: read-out: EC50 P. falcip. The procedure: Plasmodium falciparum assays are performed using an erythrocyte-fed culture of P. falciparum ring forms, using similar methods to those described by Deu et al. “Functional Studies of Plasmodium falciparum Dipeptidyl Aminopeptidase I Using Small Molecule Inhibitors and Active Site Probes.” Chemistry & Biology 17, 808-819.

The target in data set [1] is HA-tagged bovine PI4KIIIβ (Bos taurus, UniProt O02810). Description: PI4KIIIβ immunoprecipitate kinase assay with [γ-32P]-ATP. The class given is biochemical. Conditions: in vitro enzyme assays; read-out: IC50 PI4KIIIβ.
Sequence of HA-tagged bovine PI4KIIIβ (O02810 whole entry): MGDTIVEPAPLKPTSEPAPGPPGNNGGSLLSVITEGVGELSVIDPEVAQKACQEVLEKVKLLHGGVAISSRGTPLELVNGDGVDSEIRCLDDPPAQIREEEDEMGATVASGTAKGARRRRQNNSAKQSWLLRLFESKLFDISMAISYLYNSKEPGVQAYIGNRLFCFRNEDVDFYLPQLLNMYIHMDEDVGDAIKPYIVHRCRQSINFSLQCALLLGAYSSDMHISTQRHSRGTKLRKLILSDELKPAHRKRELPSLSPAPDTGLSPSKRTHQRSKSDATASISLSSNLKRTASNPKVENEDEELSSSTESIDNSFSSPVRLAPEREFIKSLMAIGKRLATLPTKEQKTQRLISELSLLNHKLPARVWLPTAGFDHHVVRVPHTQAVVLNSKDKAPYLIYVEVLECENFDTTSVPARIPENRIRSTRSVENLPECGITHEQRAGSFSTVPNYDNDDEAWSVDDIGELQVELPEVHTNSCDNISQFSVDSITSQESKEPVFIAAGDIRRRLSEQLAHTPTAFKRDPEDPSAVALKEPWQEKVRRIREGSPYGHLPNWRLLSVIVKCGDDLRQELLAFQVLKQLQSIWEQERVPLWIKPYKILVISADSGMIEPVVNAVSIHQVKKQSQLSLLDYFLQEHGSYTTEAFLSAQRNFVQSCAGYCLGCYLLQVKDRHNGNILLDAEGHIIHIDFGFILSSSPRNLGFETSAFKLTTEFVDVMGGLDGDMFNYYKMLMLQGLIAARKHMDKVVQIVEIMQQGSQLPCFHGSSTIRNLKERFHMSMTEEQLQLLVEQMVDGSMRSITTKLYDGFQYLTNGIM
The next data set has as its target HA-tagged human PI4KIIIα (Homo sapiens, UniProt P42356). Description: PI4KIIIα immunoprecipitate kinase assay with [γ-32P]-ATP. The class given is biochemical. Conditions: in vitro enzyme assays; read-out: IC50 PI4KIIIα.
For data set [2], the system named is PI(4)P and PI(4,5)P2 in Huh7.5 cells. Description: Immunofluorescence of intracellular PI(4)P and PI(4,5)P2 pools in Huh7.5 cells. The class given is cell-based. The method, then: FIG. 1 illustrates that the exemplary compound PT423 decreases PI(4)P (top panels) and PI(4,5)P2 (bottom panels) in a dose-dependent manner. Left panels: uninfected Huh7.5 cells; right panels: HCV-infected Huh7.5 cells. Cells were treated with the indicated concentrations of PT423 or vehicle control, and analyzed by immunofluorescence with antibodies to PI(4)P or PI(4,5)P2 (green) along with an antibody to calnexin (red) to control for ER morphology.
To further confirm its mechanism of action the effect of PT423 on PI-4 levels was determined in cells using immunofluorescence to monitor the intracellular localized pools of PI-4. The effect of PT423 on intracellular pools of PIP2 was tested, which were predicted to be similarly sensitive to inhibition using PT423.
FIG. 1 illustrates that PT423 decreases PI(4)P (top panels) and PI(4,5)P2 (bottom panels) in a dose-dependent manner. Left panels: uninfected Huh7.5 cells; right panels: HCV-infected Huh7.5 cells. Cells were treated with the indicated concentrations of PT423 or vehicle control, and analyzed by immunofluorescence with antibodies to PI(4)P or PI(4,5)P2 (green) along with an antibody to calnexin (red) to control for ER morphology.

The next data set has as its system human rhinovirus 14. Kind of data set: Rhinovirus assay: protection of HeLa S3 cells from cytopathic effect. It counts as cell-based. Conditions: Rhinovirus B, HRV14.
The nature of data set [3]: Cytotoxicity CC50 in HeLa cells. The class given is cell-based. Conditions: human.
In the next data set the test system is HAV replicon (HAV-Bla). Kind of data set: HAV assay: plating efficiency of Huh7-derived cells harboring blasticidin-selectable HAV replicon. It counts as cell-based.
[4] abbreviates: uninfected and HCV-infected Huh7.5 cells, immunofluorescence, FIG. 1.

Sequence of HA-tagged human PI4KIIIα (P42356 whole entry): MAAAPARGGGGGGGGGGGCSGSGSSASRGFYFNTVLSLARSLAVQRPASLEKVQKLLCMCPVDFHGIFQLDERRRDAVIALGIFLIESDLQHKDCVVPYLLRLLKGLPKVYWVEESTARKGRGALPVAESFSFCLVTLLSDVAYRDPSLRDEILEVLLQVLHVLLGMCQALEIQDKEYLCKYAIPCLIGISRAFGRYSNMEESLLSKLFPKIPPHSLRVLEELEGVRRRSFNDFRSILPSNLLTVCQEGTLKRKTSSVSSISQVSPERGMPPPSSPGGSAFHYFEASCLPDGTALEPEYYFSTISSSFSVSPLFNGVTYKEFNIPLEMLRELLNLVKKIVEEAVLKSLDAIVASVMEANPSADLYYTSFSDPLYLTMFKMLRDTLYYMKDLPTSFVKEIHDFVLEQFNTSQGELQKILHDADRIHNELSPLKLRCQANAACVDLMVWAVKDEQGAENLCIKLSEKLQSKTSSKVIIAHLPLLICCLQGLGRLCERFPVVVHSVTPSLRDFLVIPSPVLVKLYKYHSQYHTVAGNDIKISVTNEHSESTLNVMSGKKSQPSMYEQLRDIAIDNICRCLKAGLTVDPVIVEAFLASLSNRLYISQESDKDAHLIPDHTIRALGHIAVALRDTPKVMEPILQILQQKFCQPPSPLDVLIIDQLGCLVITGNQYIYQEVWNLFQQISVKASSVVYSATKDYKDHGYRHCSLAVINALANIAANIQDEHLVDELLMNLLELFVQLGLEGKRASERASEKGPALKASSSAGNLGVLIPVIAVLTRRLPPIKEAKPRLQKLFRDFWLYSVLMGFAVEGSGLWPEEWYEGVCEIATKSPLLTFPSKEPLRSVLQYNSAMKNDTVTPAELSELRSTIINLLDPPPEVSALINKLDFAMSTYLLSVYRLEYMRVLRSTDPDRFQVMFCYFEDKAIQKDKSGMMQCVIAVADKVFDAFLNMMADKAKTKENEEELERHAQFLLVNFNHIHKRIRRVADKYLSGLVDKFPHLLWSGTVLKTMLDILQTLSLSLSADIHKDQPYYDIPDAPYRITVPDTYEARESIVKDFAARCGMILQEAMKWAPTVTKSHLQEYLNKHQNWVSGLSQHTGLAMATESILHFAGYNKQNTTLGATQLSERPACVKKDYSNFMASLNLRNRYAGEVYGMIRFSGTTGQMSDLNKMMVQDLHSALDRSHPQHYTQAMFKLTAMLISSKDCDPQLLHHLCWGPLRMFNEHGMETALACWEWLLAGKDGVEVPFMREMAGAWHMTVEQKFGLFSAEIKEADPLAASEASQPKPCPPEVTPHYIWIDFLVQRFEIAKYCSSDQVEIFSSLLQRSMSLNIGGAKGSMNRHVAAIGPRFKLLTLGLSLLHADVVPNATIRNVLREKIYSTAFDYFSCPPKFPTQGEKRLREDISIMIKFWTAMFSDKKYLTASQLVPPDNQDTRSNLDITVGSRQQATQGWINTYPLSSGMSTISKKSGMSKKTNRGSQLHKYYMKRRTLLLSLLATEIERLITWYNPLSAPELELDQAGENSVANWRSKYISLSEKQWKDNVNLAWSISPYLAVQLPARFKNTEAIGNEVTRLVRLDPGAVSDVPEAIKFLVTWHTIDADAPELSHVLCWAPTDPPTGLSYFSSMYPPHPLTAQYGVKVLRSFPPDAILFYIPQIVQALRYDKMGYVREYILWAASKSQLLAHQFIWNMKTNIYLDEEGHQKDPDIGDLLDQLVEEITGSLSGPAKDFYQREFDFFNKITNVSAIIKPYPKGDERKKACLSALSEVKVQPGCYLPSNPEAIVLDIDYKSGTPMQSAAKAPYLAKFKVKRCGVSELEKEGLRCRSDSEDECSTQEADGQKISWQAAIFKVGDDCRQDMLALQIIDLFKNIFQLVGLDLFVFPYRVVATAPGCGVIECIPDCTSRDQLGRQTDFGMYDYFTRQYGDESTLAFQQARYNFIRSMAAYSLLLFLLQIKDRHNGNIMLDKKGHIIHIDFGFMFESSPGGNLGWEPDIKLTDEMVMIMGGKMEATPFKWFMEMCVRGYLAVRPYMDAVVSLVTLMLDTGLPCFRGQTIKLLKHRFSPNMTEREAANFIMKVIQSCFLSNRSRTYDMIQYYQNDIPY

For the compound `COc1ccc(-c2sc(NC(=O)C3CCCC3)nc2C)cc1S(=O)(=O)Nc1ccc(O)cc1` [PT423], the EC50 in the data set with Plasmodium falciparum is 3.2 nM; in the data set with human rhinovirus 14 it was 0.32 nM; in the data set with HAV replicon (HAV-Bla) (336 h, read-out: EC50 (concentration at which plating efficiency is decreased by 50%), HAV-Bla cells, over two weeks culture) it was less than 50 nM; in the data set with HAV replicon (HAV-Bla) (read-out: (column without head; EC50 HAV)), less than 50 nM. Besides, the IC50 in data set [1] was found to be 7 nM; on HA-tagged human PI4KIIIα, 1750 nM. The “effect on ER (calnexin co-staining)” value in data set [2] (control for non-specific effects on the cells) is given as “absence of any detectable effects on the ER”. For the same compound, in data set [2] (setting [4]), the “effect on PI-4 (PI(4)P) levels” value was “dose-dependent decrease”. Also, the “effect on PIP2 (PI(4,5)P2) levels” value in data set [2] (setting [4]) is reported as “dose-dependent decrease”. Moreover, the CC50 in data set [3] is 12600 nM.
